According to patent US20250230193A1, “CYCLIC COMPOUND HAVING SELECTIVE KRAS INHIBITORY EFFECT ON HRAS AND NRAS” (CHUGAI SEIYAKU KABUSHIKI KAISHA, priority 2022, published 2025):
*1 amine or outer side, *2 acyl side, *3 side chain or, on linkers, in order; H or OH if unused. Where a SMILES comes first, the peptide text is derived from it. Bridges are numbered along the chain shown (N, C = ends). [ ]: non-standard residue; d: D form. The star is where a group is joined. hPhe(3,5-F2-4-CF3) = N[C@@H](CCc1cc(F)c(C(F)(F)F)c(F)c1)C(=O)O; hPhe(3-Cl-4-CF3) = N[C@@H](CCc1ccc(C(F)(F)F)c(Cl)c1)C(=O)O; NPrPhe(4-CF3) = CCCN[C@@H](Cc1ccc(C(F)(F)F)cc1)C(=O)O; X16 = O=C([C@@H](N[*:1])C1CC(F)(F)C1)[*:2]; NMeGly(cPent) = CN[C@H](C(=O)O)C1CCCC1; Pro(4,4-Me2) = CC1(C)CN[C@H](C(=O)O)C1; NEtLeu = CCN[C@@H](CC(C)C)C(=O)O; NMeD = CN[C@@H](CC(=O)O)C(=O)O; NMeL = CN[C@@H](CC(C)C)C(=O)O; Morpholide = C1CN(*)CCO1; Ac5c = NC1(C(=O)O)CCCC1; Aze = O=C(O)[C@@H]1CCN1; Ac4c = NC1(C(=O)O)CCC1; Sar = CNCC(=O)O

What was measured:
[1] = molecular target: GDP-bound NRAS wild-type protein (Homo sapiens, UniProt P01111); assay: Binding to NRAS by surface plasmon resonance (SPR), Single Cycle Kinetics
Sequence of GDP-bound NRAS wild-type protein (P01111 whole entry): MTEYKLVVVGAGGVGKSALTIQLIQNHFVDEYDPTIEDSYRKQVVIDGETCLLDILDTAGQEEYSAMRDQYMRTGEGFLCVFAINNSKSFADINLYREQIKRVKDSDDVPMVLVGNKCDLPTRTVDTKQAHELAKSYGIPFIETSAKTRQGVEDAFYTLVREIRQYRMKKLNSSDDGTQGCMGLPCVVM

[2] = molecular target: GDP-bound HRAS wild-type protein (Homo sapiens, UniProt P01112); assay: Binding to HRAS by surface plasmon resonance (SPR), Single Cycle Kinetics
Sequence of GDP-bound HRAS wild-type protein (P01112 whole entry): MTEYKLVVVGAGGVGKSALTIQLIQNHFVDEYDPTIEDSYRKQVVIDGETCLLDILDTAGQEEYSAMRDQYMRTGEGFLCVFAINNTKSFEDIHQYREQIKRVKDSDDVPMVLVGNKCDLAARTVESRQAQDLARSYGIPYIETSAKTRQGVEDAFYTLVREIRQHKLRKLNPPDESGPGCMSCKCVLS

[3] = SPR, GDP-bound wild-type proteins

SMILES: CCO[C@@H]1C[C@H]2C(=O)NC3(CCC3)C(=O)N(C)[C@@H](C3CCCC3)C(=O)N(C)[C@H](C(=O)N3CCOCC3)CC(=O)N(C)C(C)(C)C(=O)N[C@@H]([C@@H](C)CC)C(=O)N(C)CC(=O)N(C)[C@H]3CCCCN(C3=O)[C@@H](Cc3ccc(C(F)(F)F)cc3)C(=O)N(C)CC(=O)N[C@@H](CCc3cc(F)c(C(F)(F)F)c(F)c3)C(=O)N2C1 [PP0722]
- NRAS/KRAS (ratio of KD value with respect to GDP-bound NRAS wild-type protein to KD value with respect to KRAS) ([1]; SPR): C (A compound having a KD ratio of 0.1 or more and less than 3 is denoted as C)
- HRAS/KRAS (ratio of KD value with respect to GDP-bound HRAS wild-type protein to KD value with respect to KRAS) ([2]; SPR): B (a compound having 3 or more and less than 10 is denoted as B)

SMILES: CCCN1C(=O)CN(C)C(=O)CN(C)C(=O)[C@H]([C@@H](C)CC)NC(=O)[C@H](CC(C)C)N(CC)C(=O)C[C@@H](C(=O)N2CCOCC2)N(C)C(=O)[C@H](C2CCCC2)N(C)C(=O)C2(CCC2)NC(=O)[C@@H]2CCCN2C(=O)[C@H](CCc2ccc(C(F)(F)F)c(Cl)c2)NC(=O)CN(C)C(=O)[C@@H]1Cc1ccc(C(F)(F)F)cc1 [PP1946] ([NEtLeu]I[Sar][Sar][NPrPhe(4-CF3)][Sar][hPhe(3-Cl-4-CF3)]P[Ac4c][NMeGly(cPent)][NMeD]-Morpholide; lactam N-11)
- NRAS/KRAS (ratio of KD value for NRAS to KD value for KRAS) ([1]; KD ratio, GDP-bound NRAS wild-type vs GDP-bound KRAS wild-type, SPR): B (a compound having 3 or more and less than 10 is denoted as B)
- HRAS/KRAS (ratio of KD value for HRAS to KD value for KRAS) ([2]; KD ratio, GDP-bound HRAS wild-type vs GDP-bound KRAS wild-type, SPR): C (A compound having a KD ratio of 0.1 or more and less than 3 is denoted as C)

SMILES: CCCN1C(=O)CN(C)C(=O)[C@@H]2CCN2C(=O)[C@H]([C@@H](C)CC)NC(=O)[C@H](CC(C)C)N(C)C(=O)C[C@@H](C(=O)N2CCOCC2)N(C)C(=O)[C@H](C2CCCC2)N(C)C(=O)C2(CCCC2)NC(=O)[C@@H]2CC(C)(C)CN2C(=O)[C@H](CCc2ccc(C(F)(F)F)c(Cl)c2)NC(=O)CN(C)C(=O)[C@@H]1Cc1ccc(C(F)(F)F)cc1 [PP0452] ([NMeL]I[Aze][Sar][NPrPhe(4-CF3)][Sar][hPhe(3-Cl-4-CF3)][Pro(4,4-Me2)][Ac5c][NMeGly(cPent)][NMeD]-Morpholide; lactam N-11)
- NRAS/KRAS (ratio of KD value with respect to GDP-bound NRAS wild-type protein to KD value with respect to KRAS) ([1]; SPR): B (a compound having 3 or more and less than 10 is denoted as B)
- HRAS/KRAS (ratio of KD value with respect to GDP-bound HRAS wild-type protein to KD value with respect to KRAS) ([2]; SPR): B (a compound having 3 or more and less than 10 is denoted as B)

SMILES: CCCN1C(=O)[C@@H]2CCN2C(=O)CN(C)C(=O)[C@H](C2CC(F)(F)C2)NC(=O)[C@H](CC(C)C)N(C)C(=O)C[C@@H](C(=O)N2CCOCC2)N(C)C(=O)[C@H](C2CCCC2)N(C)C(=O)C2(CCCC2)NC(=O)[C@@H]2CCCN2C(=O)[C@H](CCc2cc(F)c(C(F)(F)F)c(F)c2)NC(=O)CN(C)C(=O)[C@@H]1Cc1ccc(C(F)(F)F)cc1 [PP0787] ([NMeL][X16][Sar][Aze][NPrPhe(4-CF3)][Sar][hPhe(3,5-F2-4-CF3)]P[Ac5c][NMeGly(cPent)][NMeD]-Morpholide; lactam N-11)
- NRAS/KRAS (ratio of KD value with respect to GDP-bound NRAS wild-type protein to KD value with respect to KRAS) ([1]; SPR): C (A compound having a KD ratio of 0.1 or more and less than 3 is denoted as C)
- HRAS/KRAS (ratio of KD value with respect to GDP-bound HRAS wild-type protein to KD value with respect to KRAS) ([2]; SPR): B (a compound having 3 or more and less than 10 is denoted as B)

SMILES: CCC[C@H]1C(=O)N[C@@H]([C@@H](C)CC)C(=O)N(C2CC2)CC(=O)N(C)[C@H]2C/C=C\CCN(C2=O)[C@@H](Cc2ccc(C(F)(F)F)cc2)C(=O)N(C)CC(=O)N[C@@H](CCc2ccc(Cl)c(Cl)c2)C(=O)N2C[C@H](OCC)C[C@H]2C(=O)NC2(CC(C)(C)C2)C(=O)N(C)[C@@H](CC2CCC2)C(=O)N(C)[C@H](C(=O)N(C)C)CC(=O)N1C [PP2819]
- NRAS/KRAS (ratio of KD value with respect to GDP-bound NRAS wild-type protein to KD value with respect to KRAS) ([1]; class symbols): A (a compound having 10 or more and less than 20 is denoted as A)
- HRAS/KRAS (ratio of KD value with respect to GDP-bound HRAS wild-type protein to KD value with respect to KRAS) ([2]; class symbols): A (a compound having 10 or more and less than 20 is denoted as A)

SMILES: CCCOC[C@H]1C(=O)N[C@@H]([C@@H](C)CC)C(=O)N(C)CC(=O)N(C)[C@H]2C/C=C\CCN(C2=O)[C@@H](Cc2ccc(C(F)(F)F)cc2)C(=O)N(C)CC(=O)N[C@@H](CCc2ccc(C(F)(F)F)c(Cl)c2)C(=O)N2C[C@H](OCC)C[C@H]2C(=O)NC2(CCC2)C(=O)N(C)[C@@H](C2CCCC2)C(=O)N(C)[C@H](C(=O)N(C)CCC)CC(=O)N1C [PP2831]
- NRAS/KRAS (ratio of KD value with respect to GDP-bound NRAS wild-type protein to KD value with respect to KRAS) ([1]; class symbols): A (a compound having 10 or more and less than 20 is denoted as A)
- HRAS/KRAS (ratio of KD value with respect to GDP-bound HRAS wild-type protein to KD value with respect to KRAS) ([2]; class symbols): A (a compound having 10 or more and less than 20 is denoted as A)

SMILES: CC[C@H](C)[C@@H]1NC(=O)[C@@H]2CCCCCCc3ccc(cc3)C[C@@H](C(=O)N(C)CC(=O)N[C@@H](CCc3ccc(C(F)(F)F)c(OC)c3)C(=O)N3C[C@H](OC(C)C)C[C@H]3C(=O)NC3(CC(C)(C)C3)C(=O)N(C)[C@@H](C3CCCC3)C(=O)N(C)[C@H](C(=O)N(C)C)CC(=O)N2C)N2CC/C=C\C[C@@H](C2=O)N(C)C(=O)CN(C)C1=O [PP3067]
- NRAS/KRAS (ratio of KD value with respect to GDP-bound NRAS wild-type protein to KD value with respect to KRAS) [1, 3]: A (a compound having 10 or more and less than 20 is denoted as A)
- HRAS/KRAS (ratio of KD value with respect to GDP-bound HRAS wild-type protein to KD value with respect to KRAS) [2, 3]: B (a compound having 3 or more and less than 10 is denoted as B)
